# Laboratory results published in ChEMBL document CHEMBL1240533, “Selectivity and potency of cyclin-dependent kinase inhibitors” (AAPS J, 2006).
# Biological target: Cyclin-dependent kinase 5 (Homo sapiens, UniProt Q00535)
# Sequence (Q00535 whole entry): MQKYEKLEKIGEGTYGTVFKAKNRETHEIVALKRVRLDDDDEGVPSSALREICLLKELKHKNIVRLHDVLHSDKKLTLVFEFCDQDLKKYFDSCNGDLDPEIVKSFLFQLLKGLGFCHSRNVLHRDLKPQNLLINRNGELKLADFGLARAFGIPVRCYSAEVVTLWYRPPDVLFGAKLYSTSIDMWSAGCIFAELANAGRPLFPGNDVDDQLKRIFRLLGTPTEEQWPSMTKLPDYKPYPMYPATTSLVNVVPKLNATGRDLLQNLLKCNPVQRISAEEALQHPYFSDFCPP
row,SMILES,IC50
1,CC1(C)CC2(C)Nc3cc(-c4ccc5c(c4)NC4(C)CC(C)(C)NC(=S)N54)ccc3N2C(=S)N1 (stereo unspecified),25000 nM
2,COc1ccc(-c2[nH]nc3c2C(=O)c2c(NC(=O)NNC(=O)c4ccc(O)cc4)cccc2-3)cc1,5 nM
3,O=C(Nc1cc(C2CCC2)c[nH]1)Nc1cccc2ccncc12,5 nM
4,CCNc1cc(N[C@H]2CC[C@@H](O)CC2)nc(Nc2ccc3c(ccn3Cc3ccccc3)c2)n1,25000 nM

# Biological target: Cyclin-dependent kinase 6 (Homo sapiens, UniProt Q00534)
# Sequence (Q00534 whole entry): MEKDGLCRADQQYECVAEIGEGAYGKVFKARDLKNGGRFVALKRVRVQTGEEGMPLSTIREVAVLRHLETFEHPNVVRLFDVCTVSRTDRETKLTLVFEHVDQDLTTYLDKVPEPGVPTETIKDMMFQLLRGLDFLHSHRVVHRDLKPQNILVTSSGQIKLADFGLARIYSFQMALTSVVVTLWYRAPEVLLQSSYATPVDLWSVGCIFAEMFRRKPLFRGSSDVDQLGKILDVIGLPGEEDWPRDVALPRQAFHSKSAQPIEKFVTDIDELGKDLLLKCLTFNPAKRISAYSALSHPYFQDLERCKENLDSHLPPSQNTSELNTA
row,SMILES,IC50
1,CCNc1cc(N[C@H]2CC[C@@H](O)CC2)nc(Nc2ccc3c(ccn3Cc3ccccc3)c2)n1,5600 nM

# Biological target: Cyclin-dependent kinase 2/cyclin A (Homo sapiens, UniProt P24941)
# Type: protein-complex assay
# Description: Inhibition of CDK2/cyclin A
row,SMILES,IC50
1,CC(=O)N[C@@H](CCCN=C(N)N)C(=O)N[C@@H](CCCN=C(N)N)C(=O)N[C@@H](CC(C)C)C(=O)N[C@@H](CC(N)=O)C(=O)N[C@@H](Cc1ccccc1)C(N)=O,> 50000 nM

# Biological target: Cyclin-dependent kinase 4 (Homo sapiens, UniProt P11802)
# Sequence (P11802 whole entry): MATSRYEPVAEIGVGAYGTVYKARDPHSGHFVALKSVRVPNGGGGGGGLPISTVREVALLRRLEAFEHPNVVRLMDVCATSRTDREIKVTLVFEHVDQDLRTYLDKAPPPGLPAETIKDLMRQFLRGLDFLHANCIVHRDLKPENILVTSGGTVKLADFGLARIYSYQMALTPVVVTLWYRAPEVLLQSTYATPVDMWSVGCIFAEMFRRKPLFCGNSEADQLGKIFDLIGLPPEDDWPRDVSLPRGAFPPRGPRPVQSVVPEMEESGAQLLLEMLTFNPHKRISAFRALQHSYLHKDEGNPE
row,SMILES,IC50
1,O=C(Cc1ccc2ccccc2c1)Nc1cc(C2CC2)n[nH]1,> 10000 nM
2,CN(C)CCNS(=O)(=O)c1ccc(Nc2cccc(-c3cnc4ccccn34)c2)cc1,260 nM
3,Cc1ccc(F)c(Nc2nccc(-c3ccc(S(N)(=O)=O)cc3)n2)c1,150 nM
4,Nc1nc(N)c(N=O)c(=O)[nH]1,230 nM
5,O=C(Nc1ccccn1)Nc1cccc2c1[C@H]1CCCN1C2=O,2 nM
6,Nc1nc2ccc(C(=O)c3c(F)cccc3Cl)cc2n1Cc1c(F)cccc1F,810 nM
7,O=C1C(c2c(O)[nH]c3ccc(S(=O)(=O)O)cc23)=Nc2ccccc21,200 nM
8,O=C1Cc2c([nH]c3ccc([N+](=O)[O-])cc23)-c2ccccc2N1 [ALSTERPAULLONE],> 10000 nM
9,CCCCOc1c(C(=O)c2c(F)cc(C)cc2F)ccc2[nH]ncc12,2700 nM
10,CC(C)(C)Nc1nc(C(F)(F)F)nc2ccc(Nc3ccccc3)cc12,> 2100 nM
